Where two headings read alike, the source gives them in different places.
How the values were obtained:
[1] = HPLC analysis of sapropterin solutions in water; format: physicochemical
Experimental: Visual observations of degradation of sapropterin solutions were confirmed through HPLC analysis. The following methodology was used: Samples that were diluted to ca. 1 mM prior to analysis. HPLC Method • Column: Partisil […] SCX 250× (from […]) • Mode: isocratic • Mobile phase: KH2PO4 30 mM at pH 3.0 • Oven temperature: 30° C. • injection volume: 25 μL • flow: 1.5 mL/min (generated ca. 60 bar) • Detection: DAD 254-360 with acquisition at 254 HPLC System (VWR Hitachi) • VWR Hitachi L-2000 organizer • DAD: L2455 • Autosampler: L2200 • Pump: L2130 • Column oven: L2350 Preparation of Mobile Phase • 1) V (H2O)=500 mL • 2) m(KH2PO4)=2.04 g (MW=136.09 g/mol) • 3) To pH 3 with phosphoric acid diluted 50 fold with water (v/v) • Note: prior to dilution phosphoric acid stock was at 85% • Note2: 5-8 g of 1/50 diluted solution are required to drop pH to 3.0 Three solutions of sapropterin in water at 100 mM were submitted to HPLC analysis. Each solution was tested at a different time point one was tested when freshly prepared, one after one day and the other after 7 weeks old.

[2] = cited from earlier work
[3] = powder and tablet formulations suspended in various foods and water at 20 mg/mL (62 mM); after one hour; cited from earlier work
[4] = Peroxide degradation of sapropterin with HPLC analysis; format: physicochemical; conditions: peroxide degradation: 5 mL of 0.1% H2O2, 1.5 hours, room temperature
Experimental: A sample of sapropterin was subjected to peroxide degradation with 5 mL of 0.1% H2O2 for 1.5 hours at room temperature.
HPLC analysis of the resulting oxidative degradation of sapropterin was performed according to the procedure described below and the results are shown in Table 2.
• Column: YMC Pack ODS AQ (250×4.6) mm, […] • Buffer: potassium dihydrogen phosphate pH3.0 with orthophosphoric acid • Mobile Phase A: 100% Buffer • Mobile Phase B: acetonitrile:methanol (1:9) • Wavelength: 220 nm for Impurity A, C, D, E, G • Wavelength: 275 nm for Impurity F • Flow: 0.6 ml/min • Injection Volume: 5 μl • Column Temperature: 30° C. • Sample Compartment: 5° C. • Run Time: 45 min Preparation of Mobile Phase: • Mobile Phase A: 2.72 g of potassium dihydrogen phosphate was added to 1000 ml of water and dissolved. pH was adjusted to 3.0 using orthophosphoric acid. The solution was mixed and filtered through 0.45 μm nylon membrane filter and degassed. • Mobile Phase B: 900 ml of methanol and 100 ml of acetonitrile was dissolved, mixed, and degassed.
Preparation of 0.1N HCl: 8.5 ml of hydrochloric acid was added to 900 ml of water, diluted to 1000 ml with water, and then mixed.
Diluent: 2.72 g of potassium dihydrogen phosphate was added to 1000 ml of water and dissolved. pH was adjusted to 3.0 using orthophosphoric acid. 10 mg of ascorib acid was added, mixed, and then filtered through 0.45 μm nylon membrane filter and degassed.

[5] = Visual observation of unformulated SPT solutions; format: physicochemical; conditions: 100 mM solutions; yellow/orange colour developed overtime
Experimental: Stability over time of unformulated SPT solutions was initially investigated through visual observation of 100 mM solutions. The solutions were seen to be very unstable and a yellow/orange colour developed overtime, presumably due to the formation of oxidation sub-products.

[6] = cited from earlier work; remark: listed apart in the source
[7] = Vegetable oil suspension stability study, water extraction and HPLC; format: physicochemical; conditions: oil free control; freshly prepared aqueous solutions
Experimental: A simple stability study was carried out to establish the stability potential of the formulations tested. The stability study was carried out for a month at room temperature as this would reflect the conditions under which the material would be stored.
The stability work was focused on vegetable oils. Food grade vegetable oils were tested and they were sourced from a supermarket and only opened before starting the stability work. Exploratory stability work was then carried out to establish the potential of liquid formulations for sunflower oil, olive oil, rapeseed oil and rice bran oil.
Stability was informally assessed by preparing 10% w/w sapropterin suspensions and storing at room temperature on a shelf away from direct sunlight. Individual aliquots were prepared at each time point. At each sampling point sapropterin was extracted from oil with water as set out below and the sample analysed by HPLC. Absence of degradation products was used to establish lack of oxidation. The HPLC method set out above was not validated for quantitative analysis. Instead, SPT peak size was also semi-quantitatively used to further corroborate absence of oxidation but this was carried out by simply overlaying traces (e.g. SPT peak size at day 0 vs day 7) rather than performing calibrations curves of SPT. […]
Samples were analysed at day 0, day 5, day 7, and/or day 31.

[8] = 0.1 M phosphate buffer, pH 6.8, room temperature

time after which an oxidation sub-product peak became evident ([1]; 1 mM solution): 2 h
oxidation product by HPLC ([1]; 100 mM in water, freshly prepared): did not show any oxidation product
reduction in the SPT peak by oxidation ([1]; 100 mM in water, within a period of 24 h): not pronounced
Impurities (% w/w): Impurity A [4]: 0.02 % w/w
Impurities (% w/w): Impurity B [4]: 11.791 % w/w
Impurities (% w/w): Impurity C [4]: 5.322 % w/w
Impurities (% w/w): Impurity D [4]: 0.116 % w/w
Impurities (% w/w): Impurity H [4]: 0.106 % w/w
Impurities (% w/w): Unknown impurity @RRT 0.70 [4]: 0.191 % w/w
Impurities (% w/w): Unknown impurity @RRT 0.85 [4]: 0.026 % w/w
Impurities (% w/w): Unknown impurity @RRT 0.89 [4]: 0.010 % w/w
Impurities (% w/w): Unknown impurity @RRT 0.94 [4]: 0.108 % w/w
Impurities (% w/w): Unknown impurity @RRT 1.11 [4]: 0.015 % w/w
Impurities (% w/w): Unknown impurity @RRT 1.41 [4]: 0.212 % w/w
Impurities (% w/w): Unknown impurity @RRT 1.54 [4]: 0.022 % w/w
Impurities (% w/w): Unknown impurity @RRT 1.63 [4]: 0.010 % w/w
Impurities (% w/w): Unknown impurity @RRT 1.77 [4]: 0.007 % w/w
Impurities (% w/w): Unknown impurity @RRT 2.08 [4]: 0.004 % w/w
Impurities (% w/w): Unknown impurity @RRT 2.15 [4]: 0.007 % w/w
Impurities (% w/w): Unknown impurity @RRT 2.24 [4]: 0.006 % w/w
Impurities (% w/w): Unknown impurity @RRT 2.34 [4]: 0.095 % w/w
major degradation products [4]: Impurities B and C
stability over time (visual observation) [5]: very unstable
oxidation products by HPLC [7]: vestigial amounts of oxidation products
Compound: C[C@H](O)[C@H](O)[C@H]1CNc2nc(N)[nH]c(=O)c2N1 [Sapropterin, sapropterin]
oxidation product by HPLC ([1]; 100 mM in water, after 7 weeks): showed a peak at 4.2 min attributed to oxidation sub-products
oxidation product by HPLC ([1]; 100 mM in water, after one day): showed a peak at 4.2 min attributed to oxidation sub-products
pH of solution in water ([2]; 1 mM solution): 3.0
pH of solution in water ([2]; 1 M solution): 0.45
solubility in water [2]: freely soluble
sapropterin degraded [3]: 3-7%
degradation of solution in water ([6]; 0.1 mM, after 1 hour open at room temperature): about 25%
degradation of solution in water ([6]; 0.1 mM, after 3 hours): more than 60%
degradation of solution in water ([6]; 1 mM, after 1 hour open at room temperature): 2%
degradation of solution in water ([6]; 1 mM, after 3 hours): 10%
half-life [6, 8]: ~16 min
time until completely destroyed [6, 8]: 90 min
stability of solutions in 0.1 N HCl ([6]; −20° C.): stable for several weeks

— patent US12605386B2, “Sapropterin formulation” (APR Applied Pharma Research SA, priority 2022, dated 2026)
